# Results taken from patent publication US8148404B2, “Modulators of CB1 receptors” (7TM Pharma A/S, priority 2006, dated 2012).
# Target: T1, human CB1 receptor (Homo sapiens, UniProt P21554)
# T1 construct: expressed in transfected cells; membranes used
# Assay: Cannabinoid Receptor-1 functional assay: inhibition of CP55940-induced [35S]GTPγS binding to membranes of CHO-K1 cells expressing human CB1
# Format: biochemical
# Settings: 3 nM CP55940, [35S]GTPγS SPA, hCB1 membranes; read-out: IC50 value for antagonizing a CB1 receptor agonist
# Excerpt: Transfection and Cell Culture—The cDNA encoding the human CB1 (Cannabinoid Receptor-1) receptor (GenBank accession number NM_016083) was cloned from a human adipose tissue cDNA library and cloned into the eukaryotic expression vector pcDNA3.1 (Invitrogen).
# Chinese Hamster Ovary cells (CHO-K1) stably expressing recombinant human CB1 were generated by transfecting the plasmid containing the coding sequence of the human CB1 receptor in CHO-K1 cells, using lipofectamin, according to the manufacturer instructions. Resistant clones were selected in the presence of 600 μg/ml G418 (Life technology). Stably transfected CHO-K1 cells were maintained in Ham's F-12 culture medium (Invitrogen), supplemented with 10% fetal calf serum (Invitrogen), 100 U/ml penicillin, 100 μg/ml streptomycin (Life Technology), and 600 μg/ml G418.
# Functional activities of the above examples of compounds of the invention were assessed in vitro by measuring their ability to inhibit CP55940-induced [^35S]GTPγS binding to membranes prepared from CHO-K1 cells expressing the human CB1 receptor (described in Transfection and Cell Culture). CP55940 is a well known non-selective CB1 and CB2 receptor agonist (e.g Felder et al., 1995, Molecular Pharmacology, (48) 443-50). Membranes were prepared by a standard procedure. Briefly, cells were harvested using 10 mM EDTA and collected by centrifugation. Pelleted cells were homogenized in ice-cold 20 mM Hepes (pH 7.4), 10 mM EDTA and protease inhibitors (Complete protease inhibitor cocktail tablet, Roche) using an Ultra Turrax Homogenizer. The homogenate was centrifuged at 14 000 rpm for 45 min. at 4° C. The resultant pellet was resuspended in the same buffer but with only 0.1 mM EDTA and was again centrifuged at 14 000 rpm for 45 min. at 4° C. The resulting pellet (membranes) was resuspended in 20 mM Hepes (pH 7.4), 0.1 mM EDTA, 2 mM MgCl2 and protease inhibitors and protein concentration was determined by Micro BCA Protein Assay Reagent Kit (Pierce Biotechnology) according to the manufacturer instructions. The [^35S]GTPγS SPA (Scintillation Proximity Assay) binding assay was performed by incubating 5 μg/well hCB1-membranes with 1 nM [^35S]GTPγS (Perkin Elmer—NEG 030H) in the presence of 3 nM of CP55940 and various concentrations of the test compounds at room temperature for 1 hr in 96-well microtiter plates. 0.4 mg/well SPA beads (PVT-WGA; RPNQ0001 Amersham Pharmacia Biotech) were then added and the incubation continued for further 30 min. on an orbital shaker. The assay buffer contained 50 mM HEPES (pH 7.5), 50 mM NaCl, 2.5 mM MgCl2, 0.1% BSA, 1 μM GDP and 100 μg/ml Saponin. Microtiter plates were centrifuged at 1500 rpm for 5 min. and radioactivity was read immediately using a Topcounter (PerkinElmer Life Sciences). Data were analyzed and IC50 values determined by non-linear regression using the Prism software (GraphPad Software, San Diego).
# T1 sequence (P21554 whole entry): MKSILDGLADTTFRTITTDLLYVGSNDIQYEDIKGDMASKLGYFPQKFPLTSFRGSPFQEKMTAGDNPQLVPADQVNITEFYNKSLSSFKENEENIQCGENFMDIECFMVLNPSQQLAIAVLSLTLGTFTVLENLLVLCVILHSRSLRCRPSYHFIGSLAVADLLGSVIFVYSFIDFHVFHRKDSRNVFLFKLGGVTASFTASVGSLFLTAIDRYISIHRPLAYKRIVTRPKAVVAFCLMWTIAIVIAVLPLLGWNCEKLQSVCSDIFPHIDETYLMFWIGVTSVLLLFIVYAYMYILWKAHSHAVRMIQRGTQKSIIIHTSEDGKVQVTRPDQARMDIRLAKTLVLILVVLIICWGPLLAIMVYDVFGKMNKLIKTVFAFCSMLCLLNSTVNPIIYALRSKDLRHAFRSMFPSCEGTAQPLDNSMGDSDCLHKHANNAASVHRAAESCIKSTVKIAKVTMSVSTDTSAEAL
row,Compound,IC50
1,"N#Cc1ccc(C2CCN(C(=O)c3nn(-c4ccccc4Cl)c(-c4ccc(Cl)cc4)c3CC(=O)O)CC2)cc1 [[1.45], {1-(2-Chloro-phenyl)-5-(4-chloro-phenyl)-3-[4-(4-cyano-phenyl)-piperidine-1-carbonyl]-1H-pyrazol-4-yl}-acetic acid]",< 300 nM
2,"O=C(O)Cc1c(C(=O)N2CCCC2)nn(-c2ccccc2Cl)c1-c1ccc(Cl)cc1 [[1.46], [1-(2-Chloro-phenyl)-5-(4-chloro-phenyl)-3-(pyrrolidine-1-carbonyl)-1H-pyrazol-4-yl]-acetic acid]",300 to 3000 nM
3,"O=C(O)Cc1c(C(=O)N2CCCCC2)nn(-c2ccccc2Cl)c1-c1ccc(Cl)cc1 [[1.47], [1-(2-Chloro-phenyl)-5-(4-chloro-phenyl)-3-(piperidine-1-carbonyl)-1H-pyrazol-4-yl]-acetic acid]",300 to 3000 nM
4,"O=C(O)Cc1c(C(=O)N2CCOCC2)nn(-c2ccccc2Cl)c1-c1ccc(Cl)cc1 [[1.48], [1-(2-Chloro-phenyl)-5-(4-chloro-phenyl)-3-(morpholine-4-carbonyl)-1H-pyrazol-4-yl]-acetic acid]",3000 to 10000 nM
5,"O=C(O)Cc1c(C(=O)N2CCC(OCc3ccccc3)CC2)nn(-c2ccccc2Cl)c1-c1ccc(Cl)cc1 [[1.49], [3-(4-Benzyloxy-piperidine-1-carbonyl)-1-(2-chloro-phenyl)-5-(4-chloro-phenyl)-1H-pyrazol-4-yl]-acetic acid]",< 300 nM
6,"O=C(O)Cc1c(C(=O)N2CCC(CO)(c3ccccc3)CC2)nn(-c2ccccc2Cl)c1-c1ccc(Cl)cc1 [[1.50], [1-(2-Chloro-phenyl)-5-(4-chloro-phenyl)-3-(4-hydroxymethyl-4-phenyl-piperidine-1-carbonyl)-1H-pyrazol-4-yl]-acetic acid]",< 300 nM
7,"N#Cc1ccccc1C1CCN(C(=O)c2nn(-c3ccccc3Cl)c(-c3ccc(Cl)cc3)c2CC(=O)O)CC1 [[1.51], {1-(2-Chloro-phenyl)-5-(4-chloro-phenyl)-3-[4-(2-cyano-phenyl)-piperidine-1-carbonyl]-1H-pyrazol-4-yl}-acetic acid]",< 300 nM
8,"O=C(O)Cc1c(C(=O)N2CCC(c3ccccc3Cl)CC2)nn(-c2ccccc2Cl)c1-c1ccc(Cl)cc1 [[1.54], {1-(2-Chloro-phenyl)-5-(4-chloro-phenyl)-3-[4-(2-chloro-phenyl)-piper-idine-1-carbonyl]-1H-pyrazol-4-yl}-acetic acid]",< 300 nM
9,"O=C(O)Cc1c(C(=O)N2CCC(c3cccc(F)c3)C2)nn(-c2ccccc2Cl)c1-c1ccc(Cl)cc1 (centres unmarked) [[1.55], {1-(2-Chloro-phenyl)-5-(4-chloro-phenyl)-3-[3-(3-fluoro-phenyl)-pyrrolidine-1-carbonyl]-1H-pyrazol-4-yl}-acetic acid]",< 300 nM
10,"CS(=O)(=O)c1cccc(C2CCN(C(=O)c3nn(-c4ccccc4Cl)c(-c4ccc(Cl)cc4)c3CC(=O)O)CC2)c1 [[1.57], {1-(2-Chloro-phenyl)-5-(4-chloro-phenyl)-3-[4-(3-methylsulfonyl-phenyl)-piperidine-1-carbonyl]-1H-pyrazol-4-yl}-acetic acid]",300 to 3000 nM
11,O=C(O)Cc1c(C(=O)N2CCC(Oc3ccccc3)CC2)nn(-c2ccccc2Cl)c1-c1ccc(Cl)cc1 [[1.58]],< 300 nM
12,"O=C(O)Cc1c(C(=O)N2CCC(Oc3ccc(Cl)cc3)CC2)nn(-c2ccccc2Cl)c1-c1ccc(Cl)cc1 [[1.59], {1-(2-Chloro-phenyl)-5-(4-chloro-phenyl)-3-[4-(4-chlorophenoxy)-piperidine-1-carbonyl]-1H-pyrazol-4-yl}-acetic acid]",< 300 nM
13,"O=C(O)Cc1c(C(=O)N2CC(Oc3ccc(F)cc3)C2)nn(-c2ccccc2Cl)c1-c1ccc(Cl)cc1 [[1.60], {1-(2-Chloro-phenyl)-5-(4-chloro-phenyl)-3-[3-(4-fluorophenoxy)-azetidine-1-carbonyl]-1H-pyrazol-4-yl}-acetic acid]",< 300 nM
14,"O=C(O)Cc1c(C(=O)N2CCC(Oc3ccc(F)c(F)c3)CC2)nn(-c2ccccc2Cl)c1-c1ccc(Cl)cc1 [[1.61], {1-(2-Chloro-phenyl)-5-(4-chloro-phenyl)-3-[4-(3,4-difluorophenoxy)-piperidine-1-carbonyl]-1H-pyrazol-4-yl}-acetic acid]",< 300 nM
15,"O=C(O)Cc1c(C(=O)N2CCC(Oc3cccc(F)c3)CC2)nn(-c2ccccc2Cl)c1-c1ccc(Cl)cc1 [[1.62], {1-(2-Chloro-phenyl)-5-(4-chloro-phenyl)-3-[4-(3-fluorophenoxy)-piperidine-1-carbonyl]-1H-pyrazol-4-yl}-acetic acid]",< 300 nM
16,"O=C(O)Cc1c(C(=O)N2CCC(Oc3ncc(F)cn3)CC2)nn(-c2ccccc2Cl)c1-c1ccc(Cl)cc1 [[1.63], {1-(2-Chloro-phenyl)-5-(4-chloro-phenyl)-3-[4-(5-fluoropyrimidin-2-oxy)-piperidine-1-carbonyl]-1H-pyrazol-4-yl}-acetic acid]",< 300 nM
17,"O=C(O)Cc1c(C(=O)N2CCC(Oc3ccc(F)cc3)C2)nn(-c2ccccc2Cl)c1-c1ccc(Cl)cc1 (centres unmarked) [[1.64], {1-(2-Chloro-phenyl)-5-(4-chloro-phenyl)-3-[3-(4-fluorophenoxy)-pyrrolidine-1-carbonyl]-1H-pyrazol-4-yl}-acetic acid]",< 300 nM
18,"Cc1c(C(=O)N2CCC(C(=O)O)(c3ccccc3)CC2)nn(-c2ccccc2Cl)c1-c1ccc(Cl)cc1 [[2.1], 1-[5-(4-Chloro-phenyl)-1-(2-chloro-phenyl)-4-methyl-1H-pyrazole-3-carbonyl]-4-phenyl-piperidine-4-carboxylic acid]",< 300 nM
19,"O=C(c1nn(-c2ccccc2Cl)c(-c2ccc(Cl)cc2)c1Cc1nn[nH]n1)N1CCC(O)(c2ccc(F)cc2)CC1 [[3.2], [1-(2-Chloro-phenyl)-5-(4-chloro-phenyl)-4-(2H-tetrazol-5-ylmethyl)-1H-pyrazol-3-yl]-[4-(4-fluoro-phenyl)-4-hydroxy-piperidin-1-yl]-methanone]",< 300 nM
20,"O=C(c1nn(-c2ccccc2Cl)c(-c2ccc(Cl)cc2)c1Cc1nn[nH]n1)N1CCC(c2ccc(F)cc2)CC1 [[3.3], [1-(2-Chloro-phenyl)-5-(4-chloro-phenyl)-4-(2H-tetrazol-5-ylmethyl)-1H-pyrazol-3-yl]-[4-(4-fluoro-phenyl)-piperidin-1-yl]-methanone]",< 300 nM
21,"O=C(c1nn(-c2ccccc2Cl)c(-c2ccc(Cl)cc2)c1Cc1nn[nH]n1)N1CCC(c2ccccc2F)CC1 [[3.4], [1-(2-Chloro-phenyl)-5-(4-chloro-phenyl)-4-(2H-tetrazol-5-ylmethyl)-1H-pyrazol-3-yl]-[4-(2-fluoro-phenyl)-piperidin-1-yl]-methanone]",< 300 nM
22,"O=C(c1nn(-c2ccccc2Cl)c(-c2ccc(Cl)cc2)c1Cc1nn[nH]n1)N1CCC(Oc2ccccc2)CC1 [[3.5], [1-(2-Chloro-phenyl)-5-(4-chloro-phenyl)-4-(2H-tetrazol-5-ylmethyl)-1H-pyrazol-3-yl]-[4-phenoxy-piperidin-1-yl]-methanone]",< 300 nM
23,"O=C(c1nn(-c2ccccc2Cl)c(-c2ccc(Cl)cc2)c1Cc1nn[nH]n1)N1CCC(Oc2ccc(Cl)cc2)CC1 [[3.6], [1-(2-Chloro-phenyl)-5-(4-chloro-phenyl)-4-(2H-tetrazol-5-ylmethyl)-1H-pyrazol-3-yl]-[4-(4-chlorophenoxy)-piperidin-1-yl]-methanone]",< 300 nM
24,"O=C(c1nn(-c2ccccc2Cl)c(-c2ccc(Cl)cc2)c1Cc1nn[nH]n1)N1CC(Oc2ccc(F)cc2)C1 [[3.7], [1-(2-Chloro-phenyl)-5-(4-chloro-phenyl)-4-(2H-tetrazol-5-ylmethyl)-1H-pyrazol-3-yl]-[3-(4-fluorophenoxy)-azetidin-1-yl]-methanone]",< 300 nM
25,"O=C(c1nn(-c2ccccc2Cl)c(-c2ccc(Cl)cc2)c1Cc1nn[nH]n1)N1CCC(Oc2ccc(F)c(F)c2)CC1 [[3.8], [1-(2-Chloro-phenyl)-5-(4-chloro-phenyl)-4-(2H-tetrazol-5-ylmethyl)-1H-pyrazol-3-yl]-[4-(3,4-difluorophenoxy)-piperidin-1-yl]-methanone]",< 300 nM
26,"O=C(c1nn(-c2ccccc2Cl)c(-c2ccc(Cl)cc2)c1Cc1nn[nH]n1)N1CCC(Oc2cccc(F)c2)CC1 [[3.9], [1-(2-Chloro-phenyl)-5-(4-chloro-phenyl)-4-(2H-tetrazol-5-ylmethyl)-1H-pyrazol-3-yl]-[4-(3-fluorophenoxy)-piperidin-1-yl]-methanone]",< 300 nM
